Measured values published in the supplement of paper PMC9663587.

Legend:
YKL-5-124 = compound: C=CC(=O)Nc1ccc(C(=O)Nc2[nH]nc3c2CN(C(=O)N[C@H](CN(C)C)c2ccccc2)C3(C)C)cc1 [YKL-5-124]
Ipatasertib/GDC0068 = compound: CC(C)NC[C@@H](C(=O)N1CCN(c2ncnc3c2[C@H](C)C[C@H]3O)CC1)c1ccc(Cl)cc1 [Ipatasertib/GDC0068]
FMF-03-145-1 = compound: CCC(=O)Nc1ccc(C(=O)Nc2ccc(Nc3ncc4c(n3)N(C)c3ccc(C)cc3C(=O)N4C)cc2)cc1 [FMF-03-145-1]
[1] = compound: CCC1=CN=CN=C1N2CCN(CC2)CC3=NC4=C(N3)C=C(C=C4)C(F)(F)F
[2] = compound: CNc1nc(-c2ccc3c(N)n[nH]c3c2)cc(N2C[C@@H](C(=O)NC3CCCCC3)CC[C@H]2C)n1
[3] = compound: CO[C@@H](C)Cn1c(=O)n(C)c2cnc3ccc(-c4cncc(C(C)(C)O)c4)cc3c21
Everolimus [4] = compound: T1, CO[C@H]1C[C@@H]2CC[C@@H](C)[C@@](O)(O2)C(=O)C(=O)N2CCCC[C@H]2C(=O)O[C@H]([C@H](C)C[C@@H]2CC[C@@H](OCCO)[C@H](OC)C2)CC(=O)[C@H](C)/C=C(\C)[C@@H](O)[C@@H](OC)C(=O)[C@H](C)C[C@H](C)/C=C/C=C/C=C/1C [Everolimus]
[5] = compound: COc1cccc(OCCCN)c1-c1cc(Nc2cnc(C#N)cn2)n[nH]1
Ceritinib/LDK378 = compound: Cc1cc(Nc2ncc(Cl)c(Nc3ccccc3S(=O)(=O)C(C)C)n2)c(OC(C)C)cc1C1CCNCC1 [Ceritinib/LDK378]
[6] = compound: CCC1=CN=CN=C1N2CCN(CC2)CC3=NC4=C(N3)C=C(C=C4)C(F)(F)F; assay: increase in dead-cell fraction, 72 h; higher = more death;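 note: breast cancer cell lines in 384-well plates, stained with Hoechst plus LIVE/DEAD far red dye and imaged, cells above an LDR intensity threshold counted dead, Hoechst-negative corpses included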
[7] = compound: CCCCOc1c(C(=O)c2c(F)cc(C)cc2F)c[nH]c2nncc1-2; assay: as above
Rucaparib = compound: CNCc1ccc(-c2[nH]c3cc(F)cc4c3c2CCNC4=O)cc1 [Rucaparib]; assay: as above
Everolimus [8] = compound: T1, Everolimus; assay: as above
Pictilisib/GDC0941 = compound: CS(=O)(=O)N1CCN(Cc2cc3nc(-c4cccc5[nH]ncc45)nc(N4CCOCC4)c3s2)CC1 [Pictilisib/GDC0941]; assay: as above
AZD6738 = compound: C[C@@H]1COCCN1c1cc(C2([S@](C)(=N)=O)CC2)nc(-c2cc[nH]c3nccc2-3)n1 [AZD6738]; assay: as above
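Throughout, for GR50, 72 h: breast cancer and non-malignant breast epithelial cell lines, Deep Dye Drop or Dye Drop imaging, nine half-log doses, GR normalized to time-zero plates and DMSO-only controls.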

**Q.** What does the source list for AU565?
**A.** GR50, 72 h (YKL-5-124): < 0.001 µM; GR50, 72 h (Ipatasertib/GDC0068): 3.89 µM; GR50, 72 h (FMF-03-145-1): 0.00474 µM; GR50, 72 h [1]: 9.42 µM; GR50, 72 h [2]: 7.64 µM; GR50, 72 h [3]: 0.00478 µM; GR50, 72 h (Everolimus [4]): 0.00185 µM; GR50, 72 h [5]: 0.000768 µM; GR50, 72 h (Ceritinib/LDK378): 3.15 µM; increase in dead-cell fraction ([6]; 0.001 µM): 0.0018; increase in dead-cell fraction ([6]; 0.003162 µM): -0.0015; increase in dead-cell fraction ([6]; 0.01 µM): -0.0042; increase in dead-cell fraction ([6]; 0.03162 µM): -0.0013; increase in dead-cell fraction ([6]; 0.1 µM): 0.0031; increase in dead-cell fraction ([6]; 0.3162 µM): -0.0005; increase in dead-cell fraction ([6]; 1 µM): 0.001; increase in dead-cell fraction ([6]; 3.162 µM): 0.0056; increase in dead-cell fraction ([6]; 10 µM): 0.0157; increase in dead-cell fraction ([7]; 0.001 µM): 0.0215; increase in dead-cell fraction ([7]; 0.003162 µM): -0.004; increase in dead-cell fraction ([7]; 0.01 µM): 0.0231; increase in dead-cell fraction ([7]; 0.03162 µM): 0.0204; increase in dead-cell fraction ([7]; 0.1 µM): 0.0353; increase in dead-cell fraction ([7]; 0.3162 µM): 0.0286; increase in dead-cell fraction ([7]; 1 µM): 0.0615; increase in dead-cell fraction ([7]; 3.162 µM): 0.0772; increase in dead-cell fraction ([7]; 10 µM): 0.136; increase in dead-cell fraction (Rucaparib; 0.001 µM): 0.0051; increase in dead-cell fraction (Rucaparib; 0.003162 µM): -0.0024; increase in dead-cell fraction (Rucaparib; 0.01 µM): 0.0015; increase in dead-cell fraction (Rucaparib; 0.03162 µM): 0.0073; increase in dead-cell fraction (Rucaparib; 0.1 µM): -0.0049; increase in dead-cell fraction (Rucaparib; 0.3162 µM): -0.0044; increase in dead-cell fraction (Rucaparib; 1 µM): -0.0017; increase in dead-cell fraction (Rucaparib; 3.162 µM): -0.0036; increase in dead-cell fraction (Rucaparib; 10 µM): -0.0017; increase in dead-cell fraction (Everolimus [8]; 0.001 µM): 0.0191; increase in dead-cell fraction (Everolimus [8]; 0.003162 µM): 0.0225; increase in dead-cell fraction (Everolimus [8]; 0.01 µM): 0.0257; increase in dead-cell fraction (Everolimus [8]; 0.03162 µM): 0.0132; increase in dead-cell fraction (Everolimus [8]; 0.1 µM): 0.0177; increase in dead-cell fraction (Everolimus [8]; 0.3162 µM): 0.0133; increase in dead-cell fraction (Everolimus [8]; 1 µM): 0.011; increase in dead-cell fraction (Everolimus [8]; 3.162 µM): 0.019; increase in dead-cell fraction (Everolimus [8]; 10 µM): 0.0283; increase in dead-cell fraction (Pictilisib/GDC0941; 0.001 µM): 0.0052; increase in dead-cell fraction (Pictilisib/GDC0941; 0.003162 µM): 0.007; increase in dead-cell fraction (Pictilisib/GDC0941; 0.01 µM): 0.0001; increase in dead-cell fraction (Pictilisib/GDC0941; 0.03162 µM): 0.0063; increase in dead-cell fraction (Pictilisib/GDC0941; 0.1 µM): 0.0196; increase in dead-cell fraction (Pictilisib/GDC0941; 0.3162 µM): 0.0368; increase in dead-cell fraction (Pictilisib/GDC0941; 1 µM): 0.0866; increase in dead-cell fraction (Pictilisib/GDC0941; 3.162 µM): 0.126; increase in dead-cell fraction (Pictilisib/GDC0941; 10 µM): 0.19; increase in dead-cell fraction (AZD6738; 0.001 µM): 0.0013; increase in dead-cell fraction (AZD6738; 0.003162 µM): 0.0103; increase in dead-cell fraction (AZD6738; 0.01 µM): -0.0124; increase in dead-cell fraction (AZD6738; 0.03162 µM): -0.0113; increase in dead-cell fraction (AZD6738; 0.1 µM): -0.0075; increase in dead-cell fraction (AZD6738; 0.3162 µM): -0.003; increase in dead-cell fraction (AZD6738; 1 µM): 0.0064; increase in dead-cell fraction (AZD6738; 3.162 µM): 0.0079; increase in dead-cell fraction (AZD6738; 10 µM): 0.0831
